Assay results from the supplement of paper PMC5412046.
Where a name gives a salt, the structure may show the parent alone.

test system: SB.msgc-1; experiment: viability at highest tested concentration (MAXR) relative to DMSO; higher = less cytotoxic; details: SB.msgc-1 (sporadic gastric cancer)
Summary of the method: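 Patient-derived gastric cancer cells, hereditary or sporadic, were plated at 500 cells in 5 μL medium per well of a 1536-well plate and given 23 nL of compound in DMSO by pintool across 11 threefold dilutions. The top concentration was recorded for each compound. After 48 h, CellTiter-Glo was added for 30 min at room temperature and luminescence was read on a ViewLux. Values are viability normalised to DMSO, taken either at the highest concentration or as trapezoidal area under the curve.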

Going from `OC[C@H]1O[C@@H](Oc2ccc(O)cc2)[C@H](O)[C@@H](O)[C@@H]1O` [Arbutin] (top concentration 46.0829 µM) to `O=c1[nH]c(=O)n([C@H]2C[C@H](O)[C@@H](CO)O2)cc1/C=C/Br` [Brivudine] (top concentration 46.0829 µM), the viability rises from 32.7% to 112%.

Compared with `C\C1=C\N([C@H]2C[C@H](N=[N+]=[N-])[C@@H](CO)O2)C(=O)NC1=O` [Zidovudine] (top concentration 46.0829 µM), `Nc1nc(Cl)nc2c1ncn2[C@H]1C[C@H](O)[C@@H](CO)O1` [Cladribine] (top concentration 46.0829 µM) is higher in viability: 15.7% for the first, 46.6% for the second.

First: COc1ncc(-c2ccc3nccc(-c4ccnnc4)c3c2)cc1N[S+](=O)([O-])c1ccc(F)cc1F (top concentration 46.0829 µM)
Second: Cc1cccc(-c2nn(C(=S)Nc3ccccc3)cc2-c2ccnc3ccccc23)n1 [A 83-01] (top concentration 46.0829 µM)
The viability of the first is lower: 26.7% for the first, 74% for the second.

First: CCCCCN(CCC12CC3CC(CC(C3)C1)C2)C(=O)NCCCc1ccncc1 [DE-096] (top concentration 46.0829 µM)
Second: CCCCCCCCCCCCc1ccc([S+](=O)([O-])Nc2nncs2)cc1 [PHT-427] (top concentration 46.0829 µM)
The viability of the first is lower: 23.2% for the first, 96.5% for the second.

Compared with `N=C(NCCCCCCNC(=N)NC(=N)Nc1ccc(Cl)cc1)NC(=N)Nc1ccc(Cl)cc1` [Chlorhexidine] (top concentration 46.0829 µM), `O=C(Nc1ccncc1)C(=O)c1cn(Cc2ccc(Cl)cc2)c2ccccc12` [Indibulin] (top concentration 46.0829 µM) is higher in viability: -0.136% for the first, 34.1% for the second.

Going from `COC(=O)[C@@H]1CC2=CC(=O)CC[C@]2(C)[C@@]23O[C@@H]2C[C@@]2(C)[C@@H](CC[C@@]24CCC(=O)O4)[C@H]13` [Eplerenone] (top concentration 46.0829 µM) to `CC[C@H](CC[C@@H](C)[C@H]1CC[C@H]2[C@@H]3C\C=C/4C[C@@H](O)CC[C@]4(C)[C@H]3CC[C@]12C)C(C)C` [beta-Sitosterol] (top concentration 46.0829 µM), the viability falls from 111% to 102%.

First: CN(C)c1nc(Cc2ccc(NC(=O)c3ccc(C(F)(F)F)cc3)cc2)nc(N(C)C)c1CC(=O)O [AP-761] (top concentration 46.0829 µM)
Second: FC(F)(F)c1ccc(Nc2nc3cc(Oc4ccnc(-c5ncc(C(F)(F)F)[nH]5)c4)ccc3[nH]2)cc1 [RAF-265 derivative] (top concentration 46.0829 µM)
The viability of the first is higher: 113% for the first, 29.6% for the second.

Compared with `Cc1coc2c1C(=O)C(=O)c1c-2ccc2c1CCCC2(C)C` [Tanshinone IIA] (top concentration 46.0829 µM), `Cc1c[nH]c(/C=C2\C(=O)Nc3ccccc32)c1CCC(=O)O` [SU-5402] (top concentration 46.0829 µM) is higher in viability: 20.8% for the first, 58.5% for the second.

Compared with `COc1cc2nccc(Oc3ccc(NC(=O)Nc4cc(C)on4)c(Cl)c3)c2cc1OC` [Tivozanib] (top concentration 46.0829 µM), `CCC[C@H](Nc1nc(-c2ccc(NC(=O)NCC)c(OC)c2)ncc1C)c1cccnc1` [Lexibulin hydrochloride] (top concentration 46.0829 µM) is lower in viability: 48.1% for the first, 33.9% for the second.

First: Clc2cccc(Cl)c2\N=C1/NCCN1 [Clonidine] (top concentration 46.0829 µM)
Second: O=C(Nc1ncc(-c2cc(C(F)F)nn2-c2c(Cl)cccc2Cl)s1)C1CC1 [BMS-3] (top concentration 46.0829 µM)
The viability of the first is higher: 130% for the first, 38.2% for the second.

First: C[S+](=O)([O-])c1ccc(-c2cnc(N)c(C(=O)Nc3ccccc3)n2)cc1 [VE-821] (top concentration 46.0829 µM)
Second: C[S+]([O-])(=O)C1=CC=C(C=C1)C/2=C(/C(=O)OC2)C3=CC=CC=C3 [Rofecoxib] (top concentration 46.0829 µM)
The viability of the first is lower: 69.5% for the first, 105% for the second.

First: O=C1N(c2ccccc2)c2ccccc2C1(Cc1ccncc1)Cc1ccncc1 [Linopirdine] (top concentration 46.0829 µM)
Second: CC(=O)SCC(Cc1ccccc1)C(=O)NCC(=O)OCc1ccccc1 (configuration not stated) [Racecadotril] (top concentration 46.0829 µM)
The viability of the first is higher: 57.2% for the first, 46.5% for the second.

First: CCOC(=O)/C=C/[C@H](C[C@@H]1CCNC1=O)NC(=O)[C@@H](CC(=O)[C@@H](NC(=O)c1cc(C)on1)C(C)C)Cc1ccc(F)cc1 [Rupintrivir] (top concentration 46.0829 µM)
Second: CC(C)C(=O)Oc1ccc(CO)cc1[C@H](CCN(C(C)C)C(C)C)c1ccccc1 [Fesoterodine fumarate] (top concentration 46.0829 µM)
The viability of the first is higher: 113% for the first, 86.3% for the second.

Compared with `Nc1c2c(nc3ccccc13)CCCC2` [Tacrine hydrochloride] (top concentration 46.0829 µM), `COc1ccc(C(=O)c2c(C)n(CCN3CCOCC3)c3ccccc23)cc1` [Pravadoline] (top concentration 46.0829 µM) is lower in viability: 119% for the first, 94.5% for the second.

`COc1ccccc1OCC(O)COC(N)=O` (configuration not stated) [Methocarbamol] (top concentration 46.0829 µM) and `COc1cc2nc(N3CCN(C(=O)C4COc5ccccc5O4)CC3)nc(N)c2cc1OC` (configuration not stated) [Doxazosin mesylate] (top concentration 46.0829 µM) are the same in viability: 104% for the first, 104% for the second.

Going from `COc1ccc([S+](=O)([O-])N(C(C)=O)c2ccccc2/C=C/c2cc[n+]([O-])cc2)cc1` [IVX-214] (top concentration 46.0829 µM) to `CC(=O)O/N=C1/C(=C2\C(=O)Nc3cc(Br)ccc32)Nc2ccccc21` [6-Bromoindirubin-3'-acetoxime] (top concentration 46.0829 µM), the viability falls from 46.4% to 0.124%.

First: CCCCc1oc2ccccc2c1C(=O)c1cc(I)c(OCCN(CC)CC)c(I)c1 [Amiodarone] (top concentration 46.0829 µM)
Second: OC(=O)C(CC/1=C/C(=O)NC2=CC=CC=C12)NC(=O)C3=CC=C(Cl)C=C3 (configuration not stated) [Rebamipide] (top concentration 46.0829 µM)
The viability of the first is higher: 26.2% for the first, 3.96% for the second.

First: CC(C)(C(=O)NCC(F)(F)C(F)(F)F)C(=O)N[C@@H]1C(=O)Nc2ccccc2-c2ccccc21 (top concentration 46.0829 µM)
Second: O=C(c1ccccc1)c1ccc2n1CCC2C(=O)O (configuration not stated) [Ketorolac] (top concentration 46.0829 µM)
The viability of the first is higher: 59.3% for the first, 37.5% for the second.

Compared with `COc1ccc(-c2nc3cc(C4=NNC(=O)CC4C)ccc3[nH]2)cc1` (configuration not stated) [Pimobendan] (top concentration 46.0829 µM), `OC1=C(C=CC=C1)C2=CC=C(C=C2)C3=CSC4=C3C(=C(/C#N)C(=O)N4)/O` (top concentration 46.0829 µM) is lower in viability: 106% for the first, 66.3% for the second.

Going from `COC1=CC=C2/C3=N/CCN3\C(=N/C2=C1OC)NC(=O)C4=CC=CN=C4` [PIK-90] (top concentration 46.0829 µM) to `CC[C@@H]1C(=O)N(C)c2cnc(Nc3ccc(C(=O)NC4CCN(C)CC4)cc3OC)nc2N1C1CCCC1` [BI-2536] (top concentration 46.0829 µM), the viability falls from 40.5% to 14%.

First: CN1C(=O)CCS(=O)(=O)C1c1ccc(Cl)cc1 (configuration not stated) [Chlormezanone] (top concentration 46.0829 µM)
Second: O=C(NCC1CN(c2ccc(N3CCOCC3=O)cc2)C(=O)O1)c1ccc(Cl)s1 (configuration not stated) [Rivaroxaban] (top concentration 46.0829 µM)
The viability of the first is lower: 83.7% for the first, 84.9% for the second.

Compared with `NCCCCCC(=O)O` [Aminocaproic acid] (top concentration 46.0829 µM), `O=C1c2c(O)ccc(O)c2C(=O)c2c(NCCNCCO)ccc(NCCNCCO)c21` [Mitoxantrone] (top concentration 46.0829 µM) is lower in viability: 95.9% for the first, 20.4% for the second.

Compared with `CN1C(=O)C(=C/2N(C(=O)N(C3CC3)C(=O)C2=C1/NC4=CC=C(I)C=C4F)C5=CC=CC(=C5)NC(C)=O)\C` [Trametinib] (top concentration 46.0829 µM), `C1CCC(C(CC2CCCCN2)C2CCCCC2)CC1` (configuration not stated) [Perhexiline] (top concentration 46.0829 µM) is lower in viability: 62.4% for the first, 4.24% for the second.

`NC/1=N/C2=C([NH]C=N2)C(=S)N1` [Tioguanine] (top concentration 46.0829 µM) showed a viability of 23.4%.
